Laboratory results reported in patent US11917908B2, “Organic compound, optical device, light-emitting device, light-emitting apparatus, electronic device, and lighting device” (SEMICONDUCTOR ENERGY LABORATORY CO., LTD., priority 2019, dated 2024).

How the values were obtained:
Format in all cases: physicochemical
[1] = Thermogravimetry-differential thermal analysis (TG-DTA), weight reduction temperature; details: for Temperature at TG −5% (weight reduction temperature): weight reduced from initial weight by 5%; for Temperature at TG −5% (weight reduction temperature) / Temperature at TG −10% (weight reduction temperature) / Temperature at TG −50% (weight reduction temperature): 10 Pa, temperature rising rate 10° C./min; for Temperature at TG −10% (weight reduction temperature): weight reduced from initial weight by 10%; for Temperature at TG −50% (weight reduction temperature): weight reduced from initial weight by 50%
Description: The thermogravimetry-differential thermal analysis (TG-DTA) of these four substances was performed. The measurement was performed with a high vacuum differential type differential thermal balance (TG-DTA2410SA, produced by Bruker AXS K.K.). […] The temperatures of the time when the weight of the organic compounds is reduced from the initial weight by 5%, 10%, and 50% (weight reduction temperature) are shown in Table 3.

[2] = Solubility in a solvent (toluene, 25° C.); details: for solubility: organic solvent or mixture, 1M
Description: The measurement results on the solubility of 3,10PCA2Nbf(IV)-02 and 3,10mmtBuPCA2Nbf(IV)-02 in a solvent are shown below. The solubility in the table are that in toluene at 25° C. Consequently, the organic compound of one embodiment of the present invention has improved solubility in a solvent owing to the bonding of the secondary or tertiary alkyl groups having 3 to 6 carbon atoms and having a branched carbon atom which is bonded to the phenyl group to the two meta-positions of the phenyl group bonded to the 9-position of the carbazolyl group. Thus, the organic compound of one embodiment of the present invention can be easily produced owing to the easy purification.

[3] = Behaviour at sublimation purification; details: at the time of sublimation purification

Row | Temperature at TG −5% (weight reduction temperature) [1] | Temperature at TG −10% (weight reduction temperature) [1] | Temperature at TG −50% (weight reduction temperature) [1] | solubility [2] | Sublimability (from weight reduction temperatures) ([1]; comparison of the four substances of Table 3) | Solubility 0.01M ([2]; 0.01M) | Solubility 0.1M ([2]; 0.1M) | SMILES | Stability at sublimation purification [3]
1 | 398 °C | 411 °C | 442 °C | < 10 mM |  |  |  | c1ccc(N(c2ccc3c(c2)oc2cc4cc5c(cc4cc23)oc2cc(N(c3ccccc3)c3ccc4c6ccccc6n(-c6ccccc6)c4c3)ccc25)c2ccc3c4ccccc4n(-c4ccccc4)c3c2)cc1 [3,10PCA2Nbf(IV)-02, 3,10-bis[N-(9-phenyl-9H-carbazol-2-yl)-N-phenylamino]naphtho[2,3-b;6,7-b′]bisbenzofuran] | 
2 | 380 °C | 402 °C | 436 °C |  |  |  |  | CCc1cc(CC)cc(-n2c3ccccc3c3ccc(N(c4ccccc4)c4ccc5c(c4)oc4cc6cc7c(cc6cc45)oc4cc(N(c5ccccc5)c5ccc6c8ccccc8n(-c8cc(CC)cc(CC)c8)c6c5)ccc47)cc32)c1 [3,10mmEtPCA2Nbf(IV)-02, N,N-bis[9-(3,5-diethylphenyl)-9H-carbazol-2-yl]-N,N-diphenyl-naphtho[2,3-b;6,7-b′]bisbenzofuran-3,10-diamine] | 
3 | 384 °C | 407 °C | 442 °C |  |  |  |  | CCCCCCc1cc(CCCCCC)cc(-n2c3ccccc3c3ccc(N(c4ccccc4)c4ccc5c(c4)oc4cc6cc7c(cc6cc45)oc4cc(N(c5ccccc5)c5ccc6c8ccccc8n(-c8cc(CCCCCC)cc(CCCCCC)c8)c6c5)ccc47)cc32)c1 [3,10mmHexPCA2Nbf(IV)-02, N,N-bis[9-(3,5-dihexylphenyl)-9H-carbazol-2-yl]-N,N-diphenyl-naphtho[2,3-b;6,7-b′]bisbenzofuran-3,10-diamine] | decomposed at the time of sublimation purification
4 | 378 °C | 394 °C | 423 °C | < 1000 mM | highest sublimability | ∘ | ∘ | CC(C)(C)c1cc(-n2c3ccccc3c3ccc(N(c4ccccc4)c4ccc5c(c4)oc4cc6cc7c(cc6cc45)oc4cc(N(c5ccccc5)c5ccc6c8ccccc8n(-c8cc(C(C)(C)C)cc(C(C)(C)C)c8)c6c5)ccc47)cc32)cc(C(C)(C)C)c1 [3,10mmtBuPCA2Nbf(IV)-02, N,N-bis[9-(3,5-di-tert-butylphenyl)-9H-carbazol-2-yl]-N,N-diphenyl-naphtho[2,3-b;6,7-b′]bisbenzofuran-3,10-diamine] | 
